Measurements published in patent US11884932B2, “In vitro production of medial ganglionic eminence precursor cells” (The Regents of the University of California, priority 2013, dated 2024).

Key:
[1] = tested on: spontaneous PSCs recorded from hESC-derived neurons post-injection; test: Whole-cell recording of spontaneous PSCs of transplanted hESC-derived neurons in mouse brain slices; format: cell-based, human; details: mouse brain slices 7 MPI
Method: (§1) For cultured neurons, the bath was constantly perfused with fresh recording medium containing (in mM): 145 NaCl, 3 KCl, 3 CaCl2, 2 MgCl2, 10 HEPES, 8 glucose. Transverse slices (300 μm) were cut on a […] (Leica VT1200S) and maintained in an incubation chamber with aCST containing (in mM): 110 Choline Cl, 2.5 KCl, 0.5 CaCl2, 7 MgCl2, 1.3 NaH2PO4, 25 NaHCO3, 10 glucose. Slice recording medium contained (in mM): 125 NaCl, 2.5 KCl, 2 CaCl2, 1.3 MgCl2, 1.3 NaH2PO4, 25 NaHCO3, 10 glucose. Recordings were made with an Axon 700B patch-clamp amplifier and 1320A interface (Axon Instruments). Signals were filtered at 2 kHz using amplifier circuitry, sampled at 10 kHz, and analyzed using Clampex 10.2 (Axon Instruments).
To examine whether hESC-derived MGE-like cells could develop into functional interneurons that synaptically integrate in vivo, we performed whole-cell recordings of RFP+ human cells in mouse brain slices seven MPI. […]
FIG. 7. hESC-derived MGE-like Interneuron Precursor Cell Maturation and Functional Integration in the Mouse Brain. • (A) Day 35 ML cultures FACS-sorted for NKX2.1-GFP and PSA-NCAM, and injected into newborn mouse cortex. […] Scale Bar: 50 μm. • (D-E) Quantification of histology at 2 (black), 4 (orange), and 7 (blue) MPI, and of SST, CALB, and CALR (E). […] Inset: RFP fluorescence of filled neuron 7 MPI. […]

GABAA receptor = test: Whole-cell patch recording of post-synaptic currents in cultured hESC-derived neurons and co-cultured human fetal cortical neurons; format: cell-based
Excerpt: The patch electrodes were made from borosilicate glass capillaries (B-120-69-15, Sutter Instruments) with a resistance in the range of 5-7 MΩ. The pipettes were tip-filled with internal solution containing (in mM): 125 K-gluconate, 15 KCl, 10 HEPES, 4 MgCl2, 4 Na2ATP, 0.3 Na3GTP, 10 Tris-phosphocreatine, 0.2 EGTA.
as §1
Photostimulation was delivered by mercury lamp (75 mW) with a GFP excitation bandpass filter and light pulses were generated by Maste-8 (A.M.P.I.) through a high-speed shutter (UNIBLITZ), the power density of the blue light (Boyden, E. S., et al. (2005). Nat Neurosci 8, 1263-1268) (Nagel, G., et al. (2003). Proc Natl Acad Sci USA 100, 13940-13945) was 8-12 mW·mm−2, measured with a power meter (Coherent Instruments).
The percentage of neurons receiving sPSCs increased from 33.3% at eight WPD (n=12) to 82.1% at 12 WPD (n=28, FIG. 6C). To confirm that GABAergic neurons were able to send outputs to neighboring neurons, we transfected half of the neurons with Synapsin promoter—Channelrhodopsin2-EYFP (ChR2-EYFP) by lentiviral infection. […] The reversal potential of light-evoked PSCs was −32.7 mV (FIGS. 6F and 6G), close to the expected Cl-reversal potential under our recording conditions [−37.3 mV=−53.4 mV (by Nernst equation)±16.1 mV (junction potential)]. […]

hESC-derived cultures [2] = test: Cells expressing telencephalic FOXG1 in hESC-derived cultures; format: cell-based, human
Method: Cultured cells were fixed in 4% paraformaldehyde for 10-20 min. Mouse brains were fixed overnight-4° C. after trans-cardial perfusion and sectioned (50 μm) by vibratome or sliding microtome. EBs and human tissue were sectioned (25 μm) by cryostat. Cells and sections were stained: 5-10 min antigen retrieval with boiling 0.01M citrate buffer pH=6, 1 hr block with 5% serum and 0.1% triton X100 in PBS, overnight-4° C. primary antibody in block buffer (except triton-free buffer used for GABA antibody), wash 3× in PBS+tritonX100, 2 hr secondary antibody (Invitrogen), wash 4× in PBS+tritoriX100.
(§2) SHH pathway activation was required for NKX2,1-GFP+ cell derivation. In this study, we used 1-2 μM of purmorphamine or 500 ng/mL of SHH. […] Addition of an FGF inhibitor (PD173074) from the onset of differentiation (d0-25) caused a decrease in cells expressing FOXG1 (55%), but addition of the same inhibitor on day 14 (d14-25) had no effect on FOXG1 levels (not shown). Therefore, similar to fetal forebrain development, early inhibition of WNT and activation of FGF signaling pathways, along with SHH activation, play roles in patterning the ventral-telencephalic-like identity of hESC-derived cultures.

HES-3 NKX2.1GFP/w hESCs = test: NKX2.1-GFP+ differentiation efficiency of hESCs by FACS / flow cytometry; format: cell-based, human; details: for NKX2.1-GFP+ MGE precursor-like cell efficiency: KSR/B27 media
Method: HES-3 hESCs were maintained on irradiated mouse embryonic fibroblasts (Millipore) in knockout DMEM with 20% knockout serum replacement, 1% nonessential amino acids (NEAA), 1% pen-strep-glutamine, 0.0008% 2-mercaptoethanol, and 10 ng/mL FGF-basic (Invitrogen), Differentiation was initiated by CollagenaseIV/Dispase (1 mg/mL each; Invitrogen) preferential selection for hESC colonies. Colonies were trypsinized to single cells, and, as described (Eiraku, M., et al. (2008). Cell Stem Cell 3, 519-532), ˜10,000 cells/well were plated into low-attachment round-bottom 96-well plates (Corning or NOF) to form one sEB/well in optimized B27+5F; differentiation medium #1, consisting of Neurobasal-A, 2% B27-vitamin A (Invitrogen), and the same supplements in hESC media but without FGF. Also, Y27632 (10 μM), SB3431542 (10 μM), Purmorphamine (1-2 μM) (Stemgent), BMPRIA-Fc (1.5 μg/mL), and DIKK1 (1 μg/mL) (Invitrogen) were added.
On ˜d7, Y27632 was removed, and sEBs were plated adherent en-bloc onto matrigel (BD Biosciences) coated plates in medium #1. On ˜d14, factors were removed from medium #1 except for Purmorphamine. On ˜d25, aEBs were trypsinized and replated as dissociated monolayer onto matrigel or polyornithine/laminin coated plates. DAPT (10 μM) (Tocris) was added from ˜d27-d30. After FACS sorting on day ˜35, GFP+ cells could be replated (10-25,000 cells/cm2) onto cortical glial cells in medium #1. Glial cells were prepared from newborn mouse cortex, passaged at least 3× with serum to remove mouse neurons, and pre-treated at confluency with Ara-C (5 μM) (Sigma). Every 3-4 days, half of media was replaced with differentiation medium #2: Neurobasal-A, 2% B27+vitamin A, (Invitrogen) and same supplements in medium #1, without factors, except NEAA and Purmorphamine were removed, and BDNF (25 ng/mL) was added (R&D Systems). Media was replaced every 3-4 days.
FACS analysis and sorting was performed on FACS Aria II (BD Biosciences). Cells were gated for live cell DAN exclusion, small scatter size, single cells, NKX2.1-GFP signal, and PSA-NCAM-APC or -PE (Miltenyi Biotech) signal intensity. GFP-negative cells and isotype antibody (Santa Cruz) controls were used. Data was analyzed with Flowjo (Treestar) software. For live cell imaging, differentiation was similar to above, but 5,000 cells/well were plated into Aggrewell-800 plates (Stem Cell Technologies), and sEBs were plated en-bloc on day 4-7. Imaging was performed by time-lapse confocal microscopy with temperature (37° C.) and gas (5% O2, 5% CO2, 90% N2) controls (Leica SP5).
FIG. 24, Bottom Panel: Flow cytometry was used to determine the efficiency of generation of NKX2.1GFP+ MGE precursor cells using the small molecule inhibitors. The efficiency of generation of NKX2.1GFP+ MGE precursor cells was determined as what percent of cells of the cells analyzed were NKX2.1GFP+ MGE precursor cells.

hESC-derived cultures [3] = test: Viability of differentiating hESC cultures; format: cell-based, human; details: 2-6 μM purmorphamine
Method: as §2
Cost-effective cell production methods will be preferred over lengthy protocols and expensive recombinant protein-based reagents, and cryopreservation of cells will facilitate future work. Here, we used 3 small molecules (Y27632, SB431542, and purmorphamine) and 2 recombinant proteins (BMPRIA-Fc and DKK1). Several small molecule substitutes now exist for inhibition of BMP and WNT pathways. […] In addition, ˜25% of hESC-derived MGE-like cells were viable after cryopreservation and thawing, and thawed cells matured into neurons with functional properties as confirmed by electrophysiology.

For `C[N+]1(C)CCc2cc3c(cc2[C@H]1[C@@H]1OC(=O)c2c1ccc1c2OCO1)OCO3.[I-]` [BMI, bicuculline methiodide], the “block of spontaneous PSCs with slow decay-time” value [1] was “blocked”, the “block of spontaneous post-synaptic currents (sPSC)” value (GABAA receptor; BMI 20 μM, hESC-derived neurons co-cultured with mouse glial cells, eight weeks post-differentiation) was “fully blocked” and the “block of light-evoked PSCs” value (GABAA receptor; ChR2-EYFP hESC-derived neurons, blue light, neighboring neurons) was “reversible blockade”. The “block of light-evoked GABAergic-specific PSCs in primary human fetal cortical neurons” value (GABAA receptor; co-culture seven weeks with ChR2 hESC-derived neurons) was “completely blocked”.

`N#Cc1cc2nc(O)c(O)nc2cc1[N+](=O)[O-]` [CNQX, 6-Cyano-2,3-dihydroxy-7-nitro-quinoxaline] was tested, and the “block of remaining spontaneous PSCs with fast decay-time” value ([1]; applied after BMI) was “blocked”.

For `CCN(CC)CCCCNc1ncc2cc(-c3cc(OC)cc(OC)c3)c(NC(=O)NC(C)(C)C)nc2n1` [PD173074], the “cells expressing FOXG1” value (hESC-derived cultures [2]; FGF inhibitor added from onset of differentiation (d0-25)) was 55% and the “effect on FOXG1 levels” value (hESC-derived cultures [2]; FGF inhibitor added on day 14 (d14-25)) was “no effect”.

`c1ccc2c(Oc3nc(Nc4ccc(N5CCOCC5)cc4)c4ncn(C5CCCCC5)c4n3)cccc2c1` [purmorphamine] was tested, and the “GFP+ differentiation efficiency in EB cultures” value (HES-3 NKX2.1GFP/w hESCs; 2-6 μM purmorphamine versus 1-2 μM used) was “slightly increased”, the “NKX2.1-GFP+ MGE precursor-like cell efficiency” value (HES-3 NKX2.1GFP/w hESCs; 25-day hybrid method, purmorphamine day 10-25, SB431542, BMPRIA-Fc and DKK1 throughout, FACS) was 12% and the “NKX2.1-GFP+ MGE precursor cells” value (HES-3 NKX2.1GFP/w hESCs; B27 media throughout 25-day protocol, early addition of five factors (Y27632, SB431542, BMPRIA-Fc, DKK1, purmorphamine)) was 70%. The “NKX2.1-GFP+ differentiation efficiency” value (HES-3 NKX2.1GFP/w hESCs; B27 media, early purmorphamine, inhibitors removed after two weeks (d14), protocol extended to day 35, FACS) was “up to 90%”, the “NKX2.1-GFP+ MGE precursor-like cell efficiency” value (HES-3 NKX2.1GFP/w hESCs; as hybrid method but purmorphamine from day 0-25) was 1.9% and the “viability of later-stage monolayer cultures” value (hESC-derived cultures [3]) was “decreased”.

B1: DKK1: Dickkopf homolog 1, recombinant protein WNT inhibitor (protein, UniProt O94907 32-266, looked up)
Dickkopf-related protein 1: TLNSVLNSNAIKNLPPPLGGAAGHPGSAVSAAPGILYPGGNKYQTIDNYQPYPCAEDEECGTDEYCASPTRGGDAGVQICLACRKRRKRCMRHAMCCPGNYCKNGICVSSDQNHFRGEIEETITESFGNDHSTLDGYSRRTTLSSKMYHTKGQEGSVCLRSSDCASGLCCARHFWSKICKPVLKEGQVCTKHRRKGSHGLEIFQRCYCGEGLSCRIQKDHHQASNSSRLHTCQRH
In the case of B1, the “GFP+ cell differentiation efficiency” value (HES-3 NKX2.1GFP/w hESCs; DKK1 WNT inhibitor absent versus present) is reported as “similar”, the “number of cells expressing telencephalic FOXG1” value (hESC-derived cultures [2]; DKK1 WNT inhibitor absent) is reported as 45% and the “number of cells expressing telencephalic FOXG1” value (hESC-derived cultures [2]; with DKK1 WNT inhibitor) is reported as 70%.
